Where a name gives a salt, the structure may show the parent alone.
Tests used:
[1] = In vivo pharmacokinetics of Compound (VI) free base and hemisulfate salt capsules; details: dogs, oral capsule, 150 mg of Compound (VI) (or equivalent), after pretreatment with famotidine (40 mg)
Procedure: An aliquot of 0.050 mL of dog EDTA plasma was used for the assay. […] A 450 µï^ portion of the organic layer was removed and evaporated to dryness. The residue was reconstituted in 300 µl, of the reconstitution solution (30% acetonitrile in 10 mM NH40Ac with 0.01% acetic acid). All liquid transfer steps were performed using a Perkin Elmer JANUS Mini® liquid handler except for the addition of the internal standard solution. A 5 µï^ aliquot of the extracted sample was injected to uHPLC-MS/MS system. The uHPLC was performed on a LEAP 4X Ultra uHPLC system with LEAP HTC PAL autosampler. Mobile phase A contained 10 mM NH4OAc and 0.01% acetic acid in ACN/water (10:90), and mobile phase B contained 10 mM NH4OAc and 0.01% acetic acid in ACN/water (90: 10). […] The flow rate was 0.6 mL/min and column temperature was maintained at 60°C condition. Detection was accomplished using an AB Sciex Triple Quad 5500 mass spectrometer in positive ESI with turbo ion spray ionization and using multiple reaction monitoring (MRM) mode. […] Data acquisition and quantification were performed using AB Sciex Analyst® 1.5.1 software.

[2] = Equilibration and form conversion experiments of Compound of formula (V); format: physicochemical; details: Ambient, 8 days
Procedure: Equilibration: Equilibration studies using single, binary and ternary combinations of batch solvents (water, acetone, and acetonitrile) were investigated to mimic key steps in manufacturing 3-(4-nitro-1-oxoisoindolin-2-yl)piperidine-2,6-dione. Materials of 3-(4-nitro-1-oxoisoindolin-2-yl)piperidine-2,6-dione and solvent or solvent mixtures were added to a glass vial to achieve free-flowing slurry and allowed to equilibrate at the specified temperature. After equilibration for 8 days, the solid phase was separated via filtration. The solid phase was then dried under air and analyzed by XRPD. List of Experimental Conditions for Equilibration:
A total of four batches of 3-(4-nitro-1-oxoisoindolin-2-yl)piperidine-2,6-dione were characterized by XRPD, DSC, TGA, ATR-FTIR and DVS, as described in section 6.5. The solid form represented by the batch 1 was designated as Form A ({drug5b}); the solid form represented by the batch 4 was designated as Form B ({drug5c}); the batches 2 and 3 were determined to be mixtures of Forms A and B, with Form B ({drug5c}) dominating the patterns. The equilibration experiments were performed using batches 2, 3 and 4, and the results are described in Table 2. Results for Equilibration Experiments:
Results from Additional Form conversion Experiments: […]

[3] = as above; format: physicochemical; details: for Form by XRPD after equilibration: 6 hours
[4] = Hygroscopicity of forms of Compound of formula (V) (DVS); format: physicochemical; details: between 0% and 90% relative humidity; 25°C
Procedure: Differential Scanning Calorimetry (DSC): DSC analyses were performed on a TA instrument Q2000 Differential Scanning Calorimeter. Indium was used as the calibration standard. Approximately 2-5 mg of sample was placed into a DSC pan. The sample was heated under nitrogen at a rate of 10°C/min, up to a final temperature of 350°C. Melting points were reported as the extrapolated onset temperatures. Thermogravimetric Analysis (TGA): TGA analyses were performed on a TA instrument Q5000 Thermogravimetric Analyzer. Calcium oxalate was used for a performance check. Approximately 2-10 mg of accurately weighed sample was placed on a pan and loaded into the TGA furnace. The sample was heated under nitrogen at a rate of 10°C/min, up to a final temperature of 300°C. Attenuated Total Reflection Fourier-Transform Infrared Analysis (ATR-FTIR): FTIR analyses were performed on the samples "as is" using an attenuated total reflection (ATR) attachment on a Nicolet 6700 FTIR spectrometer. After a background of ambient lab conditions was obtained, samples were placed on the ATR, compressed with the anvil, and spectrum acquired. Miniature Scanning Electron Microscope (Mini SEM) Morphology analysis of the samples was carried out on an Even Mini SEM. Small amounts of samples were dispersed on a sample holder, and then coating with gold viewed with 200x and 1000x magnification. Dynamic Vapor Sorption (DVS) Hygroscopicity was determined on a Surface Measurement Systems DVS. Typically a sample size of 5-30 mg was loaded into the DVS instrument sample pan and the sample was analyzed on a DVS automated sorption analyzer at 25°C. The relative humidity was increased from 0 % to 90 %RH at 10 %RH step. The relative humidity was then decreased in a similar manner to accomplish a full adsorption/desorption cycle. The entire scope of this invention is not limited by the specific examples described herein, but is more readily understood with reference to the appended claims.

[5] = Salt screening and crystalline salt characterization of Compound (VI); details: for Hygroscopicity: ambient temperature and relative humidity conditions, hemisulfate salt
Procedure: The screening examined acid type, acid level (equivalents), and/or type of crystallization solvent. Each plate contained 96 well plates (8 rows of 12 columns per plate). […] The solution (12.5 mL) was transferred to 24 vials. To each vial was added 0.25 M EtOH stock solutions of the following acids:
The content of each vial was transferred to 12 crystallization wells and evaporated to dryness. Upon evaporation, each well was charged with 100 µl of solvent using a robotic liquid handler. The following crystallization solvents were tested: methyl isobutyl ketone (MIBK), ethyl acetate, toluene, THF, acetonitrile, acetone, isopropanol, ethanol, methanol, 1,2-dichloroethylene, isopropanol/water (50:50), and water. Next, the plates were sealed with Teflon septa and subjected to temperature cycling. […] After the heating/cooling cycle, the contents of the wells were characterized by birefringent imaging. Perceived crystalline hits were further characterized by PXRD analysis.

N[C@@H]1c2cccnc2[C@H](OC(=O)N2CCC(n3c(=O)[nH]c4ncccc43)CC2)CC[C@H]1c1cccc(F)c1F [Compound (VI), N-(5S,6S,9R)-5-amino-6-(2,3-10-difluorophenyl)-6,7,8,9-tetrahydro-5H-cyclohepta[b]pyridin-9-yl-4-(2-oxo-2,3-dihydro-1H-imidazo[4,5-b]pyridin-1-yl)piperidine-1-carboxylate]
bioavailability ([1]; listed as Compound (VI) free base): 4.54%

O=C1CCC(N2Cc3c(cccc3[N+](=O)[O-])C2=O)C(=O)N1 (stereo not drawn) [Form B ({drug5c}), 3-(4-nitro-1-oxoisoindolin-2-yl)piperidine-2,6-dione]
Form by XRPD after equilibration ([2]; Acetone/water (1:1)): converts to Form A
Form by XRPD after equilibration ([2]; Acetonitrile/water (1:1)): converts to Form A
Form by XRPD after equilibration ([2]; Acetonitrile/water/acetone (1:1:1)): converts to Form A
Form by XRPD after equilibration ([2]; acetone): converts to Form A
Form by XRPD after equilibration ([2]; water): converts to Form A
Form by XRPD after equilibration ([3]; Acetonitrile, 80 °C (or reflux)): converts to Form A
Form by XRPD after equilibration ([3]; Acetonitrile/water (2:1), 60 °C): converts to Form A
XRPD Result after form conversion experiment ([3]; Heated to 220 °C for 4 hours): converts to Form A
total mass change [4]: 0.39%

N[C@@H]1c2cccnc2[C@H](OC(=O)N2CCC(n3c(=O)[nH]c4ncccc43)CC2)CC[C@H]1c1cccc(F)c1F [hemisulfate salt of Compound (VI), (5S,6S,9R)-5-amino-6-(2,3-dfluorophenyl)-6,7,8,9-tetrahydro-5H-cyclohepta[b] pyridin-9-yl 4-(2-oxo-2,3-dihydro-1 H-imidazo[4,5-b]pyridin-1-yl)piperidine-1-carboxylate, hemisulfate salt]
Chemical stability [5]: chemically stable
Physical stability [5]: physically stable
Hygroscopicity [5]: low hygroscopicity
Hygroscopicity ([5]; listed as Sulfuric acid): low/non-hygroscopic at ambient temperatures and relative humidity conditions
bioavailability ([1]; hemisulfate salt): 34.73%

— patent publication EP2815749A1, “Solid form of 4-amino-2-(2,6-dioxopiperidine-3-yl)isoindoline-1,3-dione having specified X-ray diffraction pattern” (IP Gesellschaft für Management mbH, priority 2013, dated 2014)
